Test system: NMNAT2-V5 polypeptide
Assay: NMNAT2-V5 polypeptide expression in transfected Beas2B cells (Western blot), dose dependent, 24 h
Format: cell-based
Details: Beas2B cells transfected with NMNAT2-V5 plasmid, compound for 24 hours, read-out: A: compound efficacy (IC50) for NMNAT2 activation
Experimental: FIG. 1. Beas2B cells were transfected with NMNAT2-V5 plasmid. 24 hours later, cells were treated with compounds in a dose dependent manner (0, 1, 5, and 25 μM) for additional 24 hours. Cells were then collected and assayed for NMNAT2-V5 protein expression.
Selected compounds were tested in vitro. Briefly, Beas2B cells were transfected with NMNAT2-V5 plasmid. 24 hours later, cells were treated with a test compound in a dose dependent manner for additional 24 hours. Cells were then collected and assayed for NMNAT2-V5 polypeptide expression. Results of the assay are shown in Table A. Western blots showing levels of NMNAT2-V5 polypeptide for selected compounds are shown in FIG. 1.

SMILES | IC50 [µM]
Cc1cc(C)n(CC(=O)NCc2ccco2)c(=O)c1C#N [BC18128] | < 5
Cc1ccc2onc(CNC(=O)NCc3ccccn3)c2c1 [BC18129] | 5 to 25
O=C(CSC1=Nc2ccccc2C2=NC(CCC(=O)N3CCN(c4ccccc4)CC3)C(=O)C12)NCC1CCCO1 (centres unmarked) [BC18130] | 5 to 25
CCn1cc(C(=O)NC(C)c2ccc3c(c2)OCCO3)c(=O)c2cc(S(=O)(=O)N3CCc4ccccc4C3)ccc21 (centres unmarked) [BC18131] | 5 to 25
O=C(COc1nc2cc(C(=O)NCc3ccc(F)cc3)ccc2c(=O)n1CCOO)c1ccc(O)cc1 [BC18132] | < 5
COc1ccc(OC)c(CCNC(=O)C(Cc2ccccc2)N2Cc3ccccc3C2=O)c1 (centres unmarked) [BC18133] | 5 to 25
COc1cccc(NS(=O)(=O)c2ccc3[nH]cc(C(=O)NC(C)c4ccc5c(c4)OCCO5)c(=O)c3c2)c1 (centres unmarked) [BC18134] | ≥ 25
N#Cc1nc(-c2ccc(COc3ccccc3)s2)sc1OCCc1ccc(ON)cc1 [BC18135] | ≥ 25
O=C(COCc1cc(-c2cccs2)sn1)NCCN1CCC(Cc2ccccc2)CC1 [BC18136] | ≥ 25
CC(=O)Nc1ccc(NC(=O)c2ccccc2OCc2nc(-c3ccc(C)cc3)ns2)cc1 [BC18137] | 5 to 25
COc1ccc(OC)c(CCNC(=O)C(Cc2ccccc2)N2Cc3ccccc3C2=O)c1 (centres unmarked) [BC18138] | 5 to 25
